Reference: ChEMBL document CHEMBL5576154, “Targeted suppression of oral squamous cell carcinoma by pyrimidine-tethered quinoxaline derivatives” (RSC Med Chem, 2024)
One block for each compound: values may come before it.

Experiments:
Pyruvate kinase PKM = Pyruvate kinase PKM (Homo sapiens, UniProt P14618); assay: Activation of PKM2 (unknown origin) by LDH enzyme coupled assay
[1] = Antiproliferative activity against OSCC (unknown origin); assay type: functional, cell-based; conditions: Oral cancer cell
[2] = Cytotoxicity against normal epithelial cells (unknown origin) incubated for 24 hrs by Alamar blue assay; assay type: toxicity, cell-based, Epithelial cell
CAL-27 [3] = assay: Cytotoxicity against human CAL-27 cells incubated for 24 hrs by Alamar blue assay; conditions: CAL-27, 24 h
CAL-27 [4] = assay: Induction of apoptosis in human CAL-27 cells assessed as viable cells at IC50 concentration incubated for 24 hrs by Annexin V-FITC/PI staining based flow cytometry analysis (reference value: 97.36%); assay type: functional
[5] = biological target: Vascular endothelial growth factor receptor 2 (Homo sapiens, UniProt P35968); assay: Inhibition of human VEGFR2 by ELISA
Vascular endothelial growth factor receptor 2, sequence (P35968 whole entry): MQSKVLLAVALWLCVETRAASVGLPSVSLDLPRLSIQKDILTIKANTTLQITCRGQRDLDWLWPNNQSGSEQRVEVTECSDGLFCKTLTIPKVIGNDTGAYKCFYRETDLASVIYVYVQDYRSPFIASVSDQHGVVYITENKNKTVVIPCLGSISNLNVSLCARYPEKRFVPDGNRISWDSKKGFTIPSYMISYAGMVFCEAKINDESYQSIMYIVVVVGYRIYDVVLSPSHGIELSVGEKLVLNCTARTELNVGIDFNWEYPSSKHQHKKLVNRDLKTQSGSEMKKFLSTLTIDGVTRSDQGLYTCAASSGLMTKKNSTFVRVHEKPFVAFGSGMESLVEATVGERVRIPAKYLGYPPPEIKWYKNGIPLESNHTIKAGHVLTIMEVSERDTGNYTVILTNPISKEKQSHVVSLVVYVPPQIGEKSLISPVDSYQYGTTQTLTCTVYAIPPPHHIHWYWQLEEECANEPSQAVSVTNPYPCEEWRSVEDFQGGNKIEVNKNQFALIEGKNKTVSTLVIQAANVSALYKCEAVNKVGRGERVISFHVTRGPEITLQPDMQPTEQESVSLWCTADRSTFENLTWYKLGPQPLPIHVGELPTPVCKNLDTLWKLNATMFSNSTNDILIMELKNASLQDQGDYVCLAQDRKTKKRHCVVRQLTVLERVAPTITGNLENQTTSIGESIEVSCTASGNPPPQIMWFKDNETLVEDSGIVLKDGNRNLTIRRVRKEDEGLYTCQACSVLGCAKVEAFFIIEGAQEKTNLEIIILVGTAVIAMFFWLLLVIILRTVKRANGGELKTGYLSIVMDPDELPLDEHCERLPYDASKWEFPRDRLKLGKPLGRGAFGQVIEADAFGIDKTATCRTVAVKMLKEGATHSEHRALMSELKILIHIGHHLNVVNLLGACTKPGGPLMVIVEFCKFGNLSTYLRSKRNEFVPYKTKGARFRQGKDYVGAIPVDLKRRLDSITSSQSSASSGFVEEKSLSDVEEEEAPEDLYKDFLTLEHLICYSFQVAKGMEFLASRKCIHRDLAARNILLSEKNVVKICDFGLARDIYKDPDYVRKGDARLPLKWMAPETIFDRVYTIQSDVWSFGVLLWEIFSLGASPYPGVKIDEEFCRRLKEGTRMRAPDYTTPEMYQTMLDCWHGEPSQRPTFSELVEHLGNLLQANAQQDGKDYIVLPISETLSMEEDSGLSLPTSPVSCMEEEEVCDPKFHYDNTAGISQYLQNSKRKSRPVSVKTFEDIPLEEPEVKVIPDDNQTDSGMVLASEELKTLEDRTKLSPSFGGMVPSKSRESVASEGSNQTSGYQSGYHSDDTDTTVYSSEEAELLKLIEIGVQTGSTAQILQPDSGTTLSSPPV

Pyruvate kinase PKM, sequence (P14618 whole entry): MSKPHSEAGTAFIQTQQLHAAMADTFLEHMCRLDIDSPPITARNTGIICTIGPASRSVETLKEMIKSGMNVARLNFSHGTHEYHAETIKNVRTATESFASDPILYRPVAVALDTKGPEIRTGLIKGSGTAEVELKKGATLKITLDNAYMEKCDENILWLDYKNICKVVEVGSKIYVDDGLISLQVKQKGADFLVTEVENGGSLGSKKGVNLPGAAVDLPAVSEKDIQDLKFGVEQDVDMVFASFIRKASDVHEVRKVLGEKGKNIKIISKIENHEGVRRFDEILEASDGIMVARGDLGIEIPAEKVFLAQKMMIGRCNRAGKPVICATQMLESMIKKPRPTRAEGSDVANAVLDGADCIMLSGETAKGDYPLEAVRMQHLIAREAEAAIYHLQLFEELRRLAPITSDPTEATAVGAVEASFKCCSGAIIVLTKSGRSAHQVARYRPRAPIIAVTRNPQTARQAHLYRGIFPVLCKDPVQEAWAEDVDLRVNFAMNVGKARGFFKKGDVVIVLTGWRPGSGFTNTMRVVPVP

- EC50 (Pyruvate kinase PKM): 0.241 µM
SMILES: O=S(=O)(c1ccc2c(c1)OCCO2)N1CCN(S(=O)(=O)c2c(F)cccc2F)CC1

SMILES: COc1ccc(OC)c(C(=O)/C=C/c2ccc3nccnc3c2)c1
- IC50 [1]: 7.81 µM

SMILES: Clc1cc2ncc(-c3cnc4ncccn34)nc2cc1Cl
- IC50 at 24 h [2]: 15.8 µM
- IC50 (CAL-27 [3]): 25.3 µM

SMILES: O=C(c1ccccc1)c1ccc2ncc(-c3cnc4ccccn34)nc2c1
- IC50 at 24 h [2]: 24.9 µM
- IC50 (CAL-27 [3]): 14.6 µM

SMILES: c1ccc2nc(-c3cnc4ccccn34)cnc2c1
- IC50 (CAL-27 [3]): > 100 µM

SMILES: FC(F)(F)c1ccc(-c2ccn3c(-c4cnc5ccccc5n4)cnc3n2)cc1
- IC50 (CAL-27 [3]): > 100 µM

SMILES: Cc1ccc(-c2ccn3c(-c4cnc5ccccc5n4)cnc3n2)cc1
- IC50 (CAL-27 [3]): 64.8 µM

SMILES: c1ccc2nc(-c3cnc4ncccn34)cnc2c1
- IC50 (CAL-27 [3]): > 100 µM

SMILES: CS(=O)(=O)c1ccc(-c2ccn3c(-c4cnc5ccccc5n4)cnc3n2)cc1
- IC50 (CAL-27 [3]): > 100 µM

SMILES: Brc1ccc2ncc(-c3cnc4ncccn34)nc2c1
- IC50 at 24 h [2]: 15.2 µM
- IC50 (CAL-27 [3]): 21.6 µM

SMILES: Clc1ccc(-c2ccn3c(-c4cnc5ccccc5n4)cnc3n2)cc1
- Activity (CAL-27 [4]): 79.07%

SMILES: Clc1ccc2ncc(-c3cnc4ncccn34)nc2c1
- IC50 (CAL-27 [3]): > 100 µM

SMILES: Clc1ccc2ncc(-c3cnc4ccccn34)nc2c1
- IC50 at 24 h [2]: 19.2 µM
- IC50 (CAL-27 [3]): 12.8 µM

- IC50 [5]: 0.0027 µM
SMILES: Cc1nc2ccccc2n(CC(=O)Nc2ccc(C(=O)Nc3cccc(Cl)c3)cc2)c1=O

SMILES: Clc1ccccc1-c1ccn2c(-c3cnc4ccccc4n3)cnc2n1
- IC50 at 24 h [2]: 133 µM
- IC50 (CAL-27 [3]): 13.7 µM

SMILES: O=C(c1ccccc1)c1ccc2ncc(-c3cnc4ncccn34)nc2c1
- IC50 at 24 h [2]: 16.7 µM
- IC50 (CAL-27 [3]): 17 µM

SMILES: Cc1ccc2ncc(-c3cnc4ccccn34)nc2c1
- IC50 at 24 h [2]: 22.5 µM
- IC50 (CAL-27 [3]): 18.5 µM

SMILES: O=[N+]([O-])c1ccc2ncc(-c3cnc4ccccn34)nc2c1
- IC50 at 24 h [2]: 20.8 µM
- IC50 (CAL-27 [3]): 27.2 µM

SMILES: c1ccc(-c2ccn3c(-c4cnc5ccccc5n4)cnc3n2)cc1
- IC50 at 24 h [2]: 47.5 µM
- IC50 (CAL-27 [3]): 10.3 µM

SMILES: Fc1ccc(-c2ccn3c(-c4cnc5ccccc5n4)cnc3n2)cc1
- IC50 (CAL-27 [3]): > 100 µM

SMILES: Fc1ccccc1-c1ccn2c(-c3cnc4ccccc4n3)cnc2n1
- IC50 (CAL-27 [3]): > 100 µM

SMILES: Fc1ccc2ncc(-c3cnc4ncccn34)nc2c1
- IC50 (CAL-27 [3]): > 100 µM

SMILES: Clc1ccc(-c2ccn3c(-c4cnc5ccccc5n4)cnc3n2)c(Cl)c1
- IC50 (CAL-27 [3]): > 100 µM

SMILES: Fc1ccc2ncc(-c3cnc4ccccn34)nc2c1
- IC50 (CAL-27 [3]): > 100 µM

SMILES: Clc1cc2ncc(-c3cnc4ccccn34)nc2cc1Cl
- IC50 at 24 h [2]: 23.9 µM
- IC50 (CAL-27 [3]): 15.1 µM

SMILES: Brc1ccc2ncc(-c3cnc4ccccn34)nc2c1
- IC50 at 24 h [2]: 20.9 µM
- IC50 (CAL-27 [3]): 16 µM

SMILES: O=[N+]([O-])c1ccc2ncc(-c3cnc4ncccn34)nc2c1
- IC50 at 24 h [2]: 18.3 µM
- IC50 (CAL-27 [3]): 19.7 µM

SMILES: Cc1ccc2ncc(-c3cnc4n3C=C=C=N4)nc2c1
- IC50 (CAL-27 [3]): > 100 µM
